Source: ChEMBL document CHEMBL1201862, “PubChem BioAssay data set” (2004)
Counter-ions that a name gives are not always drawn.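 Five concentrations, 48 hours, 96-well plates. GI50: concentration for 50% inhibition of growth.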 The source made the active and inactive calls. Cut-off read from the data, not from the text of the source: active = GI50 up to about 1.1 µM and inactive = higher.

How the values were obtained:
Assay in all cases: growth of human tumour cells (NCI), 48 h
786-0 = test system: 786-0
A549 = test system: A549
ACHN = test system: ACHN
BT-549 = test system: BT-549
CAKI-1 = test system: CAKI-1
CCRF-CEM = test system: CCRF-CEM
COLO 205 = test system: COLO 205
DU-145 = test system: DU-145
EKVX = test system: EKVX
HCC 2998 = test system: HCC 2998
HCT-116 = test system: HCT-116
HCT-15 = test system: HCT-15
HL-60 = test system: HL-60
HOP-62 = test system: HOP-62
HOP-92 = test system: HOP-92
HT-29 = test system: HT-29
Hs-578T = test system: Hs-578T
IGROV-1 = test system: IGROV-1
KM12 = test system: KM12
LOX IMVI = test system: LOX IMVI
M14 = test system: M14
MCF7 = test system: MCF7
MDA-MB-231 = test system: MDA-MB-231
MDA-MB-435 = test system: MDA-MB-435
MDA-N = test system: MDA-N
MOLT-4 = test system: MOLT-4
NCI-H226 = test system: NCI-H226
NCI-H23 = test system: NCI-H23
NCI-H460 = test system: NCI-H460
NCI-H522 = test system: NCI-H522
NCI/ADR-RES = test system: NCI/ADR-RES
OVCAR-3 = test system: OVCAR-3
OVCAR-4 = test system: OVCAR-4
OVCAR-5 = test system: OVCAR-5
OVCAR-8 = test system: OVCAR-8
PC-3 = test system: PC-3
RXF 393 = test system: RXF 393
SF-268 = test system: SF-268
SF-295 = test system: SF-295
SF-539 = test system: SF-539
SK-MEL-28 = test system: SK-MEL-28
SK-MEL-2 = test system: SK-MEL-2
SK-MEL-5 = test system: SK-MEL-5
SK-OV-3 = test system: SK-OV-3
SN12C = test system: SN12C
SNB-19 = test system: SNB-19
SNB-75 = test system: SNB-75
SW-620 = test system: SW-620
TK-10 = test system: TK-10
U-251 = test system: U-251
UACC-257 = test system: UACC-257
UACC-62 = test system: UACC-62
UO-31 = test system: UO-31
A498 = test system: A498
K562 = test system: K562
RPMI-8226 = test system: RPMI-8226

With O=C1NC(=O)C(CC(C(=O)C(=O)Nc2ccccc2Cl)C(=O)c2ccc3ccccc3c2)C(=O)N1 (centres undefined) the GI50 (786-0) was > 100 µM (inactive), the GI50 (A549) was > 100 µM (inactive) and the GI50 (ACHN) was > 100 µM (inactive). For the same compound, the GI50 (BT-549) was > 100 µM (inactive), the GI50 (CAKI-1) was > 100 µM (inactive) and the GI50 (CCRF-CEM) was > 100 µM (inactive). The GI50 (COLO 205) was > 100 µM (inactive), the GI50 (DU-145) was > 100 µM (inactive) and the GI50 (EKVX) was > 100 µM (inactive). For the same compound, the GI50 (HCC 2998) was > 100 µM (inactive), the GI50 (HCT-116) was > 100 µM (inactive) and the GI50 (HCT-15) was over 100 µM. The GI50 (HL-60) was > 100 µM (inactive), the GI50 (HOP-62) was > 100 µM (inactive) and the GI50 (HOP-92) was 61.9 µM (inactive). For the same compound, the GI50 (HT-29) was > 100 µM (inactive), the GI50 (Hs-578T) was > 100 µM (inactive) and the GI50 (IGROV-1) was > 100 µM (inactive). The GI50 (KM12) was > 100 µM (inactive), the GI50 (LOX IMVI) was > 100 µM (inactive) and the GI50 (M14) was > 100 µM (inactive). For the same compound, the GI50 (MCF7) was > 100 µM (inactive), the GI50 (MDA-MB-231) was > 100 µM (inactive) and the GI50 (MDA-MB-435) was > 100 µM (inactive). The GI50 (MDA-N) was > 100 µM (inactive), the GI50 (MOLT-4) was > 100 µM (inactive) and the GI50 (NCI-H226) was > 100 µM (inactive). For the same compound, the GI50 (NCI-H23) was > 100 µM (inactive), the GI50 (NCI-H460) was > 100 µM (inactive) and the GI50 (NCI-H522) was > 100 µM (inactive). For the same compound, the GI50 (NCI/ADR-RES) was > 100 µM (inactive), the GI50 (OVCAR-3) was > 100 µM (inactive) and the GI50 (OVCAR-4) was > 100 µM (inactive). For the same compound, the GI50 (OVCAR-5) was > 100 µM (inactive), the GI50 (OVCAR-8) was > 100 µM (inactive) and the GI50 (PC-3) was > 100 µM (inactive). The GI50 (RXF 393) was > 100 µM (inactive), the GI50 (SF-268) was > 100 µM (inactive) and the GI50 (SF-295) was > 100 µM (inactive). The GI50 (SF-539) was > 100 µM (inactive), the GI50 (SK-MEL-28) was > 100 µM (inactive) and the GI50 (SK-MEL-2) was > 100 µM (inactive). For the same compound, the GI50 (SK-MEL-5) was > 100 µM (inactive), the GI50 (SK-OV-3) was > 100 µM (inactive) and the GI50 (SN12C) was > 100 µM (inactive). The GI50 (SNB-19) was > 100 µM (inactive), the GI50 (SNB-75) was > 100 µM (inactive) and the GI50 (SW-620) was > 100 µM (inactive). The GI50 (TK-10) was > 100 µM (inactive), the GI50 (U-251) was > 100 µM (inactive) and the GI50 (UACC-257) was > 100 µM (inactive). For the same compound, the GI50 (UACC-62) was > 100 µM (inactive) and the GI50 (UO-31) was 63.7 µM (inactive).
For CC[C@]12CN3CCc4c([nH]c5ccccc45)[C@@](C(=O)OC)(c4cc5c(cc4OC)N(C)[C@H]4[C@@](O)(C(=O)OC)[C@H](OC(C)=O)[C@]6(CC)C=CCN7CC[C@]54[C@@H]76)CC(C3)[C@H]1O2 (some centres undefined) [VINLEUROSINE SULFATE], the GI50 (786-0) was < 0.01 µM (active), the GI50 (A498) was 0.863 µM (active) and the GI50 (A549) was 0.394 µM (active). For the same compound, the GI50 (ACHN) was 1.33 µM (inactive), the GI50 (BT-549) was 10.2 µM (inactive) and the GI50 (CAKI-1) was 2.16 µM (inactive). For the same compound, the GI50 (CCRF-CEM) was < 0.019 µM (active), the GI50 (COLO 205) was < 0.01 µM (active) and the GI50 (DU-145) was < 0.01 µM (active). For the same compound, the GI50 (EKVX) was 10.8 µM (inactive), the GI50 (HCC 2998) was < 0.01 µM (active) and the GI50 (HCT-116) was < 0.01 µM (active). For the same compound, the GI50 (HCT-15) was 0.449 µM, the GI50 (HL-60) was < 0.01 µM (active) and the GI50 (HOP-62) was 0.1 µM (active). For the same compound, the GI50 (HOP-92) was 8.13 µM (inactive), the GI50 (HT-29) was < 0.0172 µM (active) and the GI50 (Hs-578T) was 0.108 µM (active). The GI50 (IGROV-1) was 0.441 µM (active), the GI50 (K562) was < 0.01 µM (active) and the GI50 (KM12) was < 0.0276 µM (active). For the same compound, the GI50 (LOX IMVI) was < 0.01 µM (active), the GI50 (M14) was 0.171 µM (active) and the GI50 (MCF7) was < 0.014 µM (active). For the same compound, the GI50 (MDA-MB-231) was 0.291 µM (active), the GI50 (MDA-MB-435) was < 0.01 µM (active) and the GI50 (MDA-N) was < 0.01 µM (active). For the same compound, the GI50 (MOLT-4) was < 0.0156 µM (active), the GI50 (NCI-H226) was 0.221 µM (active) and the GI50 (NCI-H23) was 0.126 µM (active). For the same compound, the GI50 (NCI-H460) was < 0.01 µM (active), the GI50 (NCI-H522) was < 0.01 µM (active) and the GI50 (NCI/ADR-RES) was 16.1 µM (inactive). For the same compound, the GI50 (OVCAR-3) was 0.0104 µM (active), the GI50 (OVCAR-4) was < 0.01 µM (active) and the GI50 (OVCAR-5) was 0.804 µM (active). The GI50 (OVCAR-8) was 0.449 µM (active), the GI50 (PC-3) was 0.134 µM (active) and the GI50 (RPMI-8226) was 0.0581 µM (active). The GI50 (RXF 393) was 0.158 µM (active), the GI50 (SF-268) was 1.02 µM (active) and the GI50 (SF-295) was 0.0401 µM (active). For the same compound, the GI50 (SF-539) was 0.039 µM (active), the GI50 (SK-MEL-28) was 0.254 µM (active) and the GI50 (SK-MEL-2) was 0.0968 µM (active). The GI50 (SK-MEL-5) was < 0.01 µM (active), the GI50 (SK-OV-3) was 0.12 µM (active) and the GI50 (SN12C) was < 0.01 µM (active). For the same compound, the GI50 (SNB-19) was 0.0553 µM (active), the GI50 (SNB-75) was 0.0716 µM (active) and the GI50 (SW-620) was < 0.0208 µM (active). For the same compound, the GI50 (TK-10) was > 47.5 µM (inactive), the GI50 (U-251) was < 0.0179 µM (active) and the GI50 (UACC-257) was 3.24 µM (inactive). The GI50 (UACC-62) was 0.0368 µM (active) and the GI50 (UO-31) was 5.57 µM (inactive).
